Assays:
Assay in all cases: absorption spectrum of purified protein
Format in all cases: binding
Details in all cases: covalent (protonated Schiff base); 1 M NaCl, 0.05% DDM, pH 7.0
[1] = target: T1, HwBR (Haloquadratum walsbyi, UniProt Q18DH8)
T1 construct: gene bop1
T1 sequence (Q18DH8 7-254): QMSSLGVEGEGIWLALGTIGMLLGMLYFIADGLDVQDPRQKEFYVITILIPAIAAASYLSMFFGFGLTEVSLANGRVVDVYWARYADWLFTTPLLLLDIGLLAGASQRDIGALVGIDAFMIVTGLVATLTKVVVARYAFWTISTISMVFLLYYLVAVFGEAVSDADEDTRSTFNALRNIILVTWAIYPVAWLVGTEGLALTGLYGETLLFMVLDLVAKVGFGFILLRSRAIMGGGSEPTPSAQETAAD

[2] = target: T2, GR (Gloeobacter violaceus, UniProt Q7NP59)
T2 construct: gene gll0198
T2 sequence (Q7NP59 1-298): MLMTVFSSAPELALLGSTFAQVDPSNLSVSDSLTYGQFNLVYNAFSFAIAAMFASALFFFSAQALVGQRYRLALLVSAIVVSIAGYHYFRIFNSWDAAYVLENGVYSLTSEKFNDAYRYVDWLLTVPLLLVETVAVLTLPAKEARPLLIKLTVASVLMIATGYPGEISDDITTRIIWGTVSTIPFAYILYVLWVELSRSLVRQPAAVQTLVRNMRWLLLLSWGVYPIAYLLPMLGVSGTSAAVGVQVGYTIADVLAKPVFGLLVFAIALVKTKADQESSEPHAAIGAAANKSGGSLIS

[3] = target: T3, AR3 (archaerhodopsin-3) (Halorubrum sodomense, UniProt P96787, M128A/G132A/S151G/A225T)
T3 construct: gene aop3
T3 sequence (P96787 7-258 M128A/G132A/S151G/A225T): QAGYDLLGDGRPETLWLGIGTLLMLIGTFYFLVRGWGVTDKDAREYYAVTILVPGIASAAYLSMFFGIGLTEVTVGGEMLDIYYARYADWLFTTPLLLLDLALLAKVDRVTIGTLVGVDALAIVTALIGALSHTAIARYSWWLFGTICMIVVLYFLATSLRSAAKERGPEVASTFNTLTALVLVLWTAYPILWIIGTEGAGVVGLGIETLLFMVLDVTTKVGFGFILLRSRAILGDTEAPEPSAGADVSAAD

CC1=C(/C=C/C(C)=C/C=C/C(C)=C/C=O)C(C)(C)CCC1 [all-trans retinal]
absorption spectrum of purified protein [1]: Absorption spectra of wild-type and colour variants of HwBR (a) and GR (b) | absorption spectrum of purified protein [2]: Absorption spectra of wild-type and colour variants of HwBR (a) and GR (b) | absorption spectrum of purified protein [3]: The M128A/G132A/S151G/A225T and M128A/S151A/A225T mutants slightly reduced the shifts

From PMC4479019, “Atomistic design of microbial opsin-based blue-shifted optogenetics tools” (Nature Communications, 2015)
